Data: patent US10739353B2, “Suppression of cytokine release and cytokine storm” (SignPath Pharma Inc., priority 2014, dated 2020)
Converted amounts (≈) assume the structure as drawn. “Also recorded” adds a separate entry of the source. Where two headings read alike, the source gives them in different places.

Assays:
[1] = Solubility in organic solvents; assay type: physicochemical
Excerpt: Comparison of PLGA C3-complex-curcumin vs PLGA S-curcumin indicated the following differences. The solubilities of 99.2% S-Curcumin in all four solvents. […] This confers improved manufacturing capability, and attributes to different pharmacokinetics and pharmacodynamics in in vivo settings (Table 3). [table]

[2] = mice, cited from earlier work; for brain cytokine levels after TBI: cytokines named in value
EBOV(Zaire) = experiment: microbe, parasite or virus in culture; assay type: cell-based; conditions: Zaire ebolavirus, HeLa, 48 h, read-out: EC50 (anti-EBOV activity)
Interleukins = conditions: cited from earlier work
Other Key Cytokines = conditions: cited from earlier work
cytokine release = conditions: cited from earlier work
IL-6, TNF-α and MCP-1 = conditions: streptozotocin rats; cited from earlier work
coxsackie virus = conditions: Song et al; cited from earlier work
[3] = tested on: HIV-1, HIV-2, HSV, HPV, HTLV-1, HBV, HCV, and Japanese encephalitis virus; conditions: cited from earlier work
SOCS proteins = conditions: cited from earlier work
H1N1 virus = conditions: in culture; cited from earlier work
QT interval = conditions: cited from earlier work
[4] = rats, cited from earlier work; for brain / tissue cytokine levels after TBI: cytokines named in value
[5] = cited from earlier work; for clinical outcome in patients with TBI: patient trials
IL-1β and TNF-α = conditions: intraperitoneal, 3 hours after injury; cited from earlier work
[6] = randomized phase II trial, acute stroke, vs control group; cited from earlier work
[7] = rats; cited from earlier work
[8] = tested on: rat cerebellar granule cells; conditions: toxic doses of glutamate (Bachis et al); cited from earlier work
[9] = phase II trial, 20 patients with severe TBI (Helmy et al)

Question: Which “1 g of solvent solubilize in solvent” value ([1]; Acetone) does the source give for `COc1cc(/C=C/C(=O)CC(=O)/C=C/c2ccc(O)c(OC)c2)ccc1O` [Batch-C100609, diferuloylmethane] here?
Answer: 23.6 mL

Question: What about the “Conc.” value ([1]; Acetone) of the same molecule?
Answer: 42300 µg/mL

Question: What about the “Physical appearance of solubility” value ([1]; Acetone) of the same molecule?
Answer: Fully

Question: And the “1 g of solvent solubilize in solvent” value ([1]; Acetonitrile)?
Answer: 184 mL

Question: What about the “Conc.” value ([1]; Acetonitrile) of the same molecule?
Answer: 5440 µg/mL

Question: And the “Physical appearance of solubility” value ([1]; Acetonitrile)?
Answer: Partial

Question: What about the “1 g of solvent solubilize in solvent” value ([1]; Ethanol) of the same molecule?
Answer: 263 mL

Question: And the “Conc.” value ([1]; Ethanol)?
Answer: 3804 µg/mL

Question: And the “Physical appearance of solubility” value ([1]; Ethanol)?
Answer: Partial

Question: What about the “1 g of solvent solubilize in solvent” value ([1]; Ethyl acetate) of the same molecule?
Answer: 96.2 mL

Question: What about the “Conc.” value ([1]; Ethyl acetate) of the same molecule?
Answer: 10400 µg/mL

Question: And the “Physical appearance of solubility” value ([1]; Ethyl acetate)?
Answer: Partial

Question: And the “solubility compared with C3 complex” value ([1]; normalized to equal concentrations, Ethanol, Ethyl acetate, Acetone, Acetonitrile)?
Answer: greater solubility

Question: For `CC(C(=O)O)c1ccc2c(c1)[nH]c1ccc(Cl)cc12` (centres unmarked) [Carprofen], which “brain damage / neurological outcome after TBI” value [2] is on record?
Answer: improve neurological functioning

Question: And the “brain cytokine levels after TBI” value [2]?
Answer: markedly reduce IL-1β and IL-6

Question: What does the source list for `COc1cc(C=CC(=O)CC(=O)C=Cc2ccc(O)c(OC)c2)ccc1O` [Curcumin, 1,7-bis(4-hydroxy-3-methoxyphenyl)-1,6-heptadiene-3,5-dione]?
Answer: EC50 (EBOV(Zaire)): 6.5 ± 0.5 µg/mL (≈ 17.6 µM); Effect on IL-1 (Interleukins): ↓ IL-1; Effect on IL-2 (Interleukins): ↓ IL-2; Effect on IL-4 (Interleukins): ↓ ↑ IL-4; Effect on IL-5 (Interleukins): ↓ IL-5; Effect on IL-6 (Interleukins): ↓ IL-6; Effect on IL-8 (Interleukins): ↓ IL-8; Effect on IL-10 (Interleukins): ↑ IL-10; Effect on IL-11 (Interleukins): ↓ IL-11; Effect on IL-12 (Interleukins): ↓ IL-12; Effect on IL-13 (Interleukins): ↓ IL-13; Effect on IL-17 (Interleukins): ↓ IL-17; Effect on GROα (CXCL1) (Other Key Cytokines): ↓ GROα; Effect on GROβ (CXCL2) (Other Key Cytokines): ↓ GROβ; Effect on IP-10 (CXCL10) (Other Key Cytokines): ↓ IP-10; Effect on Interferon γ (Other Key Cytokines): ↓ Interferon γ; Effect on MCP-1 (CCL2) (Other Key Cytokines): ↓ MCP-1; Effect on MIP-1α (CCL3) (Other Key Cytokines): ↓ MIP-1α; Effect on SDF-1 (CXCL12) (Other Key Cytokines): ↓ SDF-1; Effect on TNF-α (Other Key Cytokines): ↓ TNF-α; release of IL-1 (cytokine release; bone marrow stromal cells, colonic epithelial cells and human articular chondrocytes): block the release; release of IL-2, IL-12, Interferon-γ (cytokine release): prevents release; release of IL-8 (cytokine release; human esophageal epithelial cells and alveolar epithelial cells): block the release; IL-1β, IL-8, TNF-α, MCP-1 and MIP-1α release (cytokine release; monocytes and macrophages (Abe et al)): suppresses; release of IL-6, IL-8, TNF-α and MCP-1 (cytokine release; monocytes cultured in a high glucose environment (Jain et al)): markedly reduced; release of IL-6 (cytokine release; rheumatoid synovial fibroblasts): block the release; levels of IL-6, TNF-α and MCP-1 (IL-6, TNF-α and MCP-1): markedly reduced; coxsackie virus-induced myocardial damage (coxsackie virus): protected against coxsackie virus-induced severe myocardial damage; expression of IL-1β, IL-6 and TNF-α and NF-κB (coxsackie virus): reduced expression; activity against viruses [3]: activity against numerous viruses; effect on SOCS proteins (SOCS proteins): stimulate; activity against the H1N1 virus (H1N1 virus): specific activity

Question: For `CCCCCCCCc1ccc(CCC(N)(CO)CO)cc1` [Fingolimod], which QT interval (QT interval; patients with relapsing multiple sclerosis, through inhibition of the hERG current) is on record?
Answer: causes QT prolongation

Question: With `Cc1cc(-c2ccccc2)nnc1N1CCN(c2ncccn2)CC1` [MW151] as the molecule, how does the “brain damage / neurological outcome after TBI” value [2] read?
Answer: improvement in neurologic functioning

Question: And the “brain cytokine levels after TBI” value [2]?
Answer: restored abnormal cytokine levels to normal

Question: Which “brain damage / neurological outcome after TBI” value [4] does the source give for `CC(C)[C@]12O[C@H]1[C@@H]1O[C@]13[C@]1(O[C@H]1C[C@H]1C4=C(CC[C@@]13C)C(=O)OC4)[C@@H]2O` [Triptolide] here?
Answer: reduce neuronal apoptosis

Question: What about the “brain / tissue cytokine levels after TBI” value [4] of the same molecule?
Answer: suppress IL-1β, IL-6 and TNF-α, to increase IL-10 levels

Question: Which results are given for `CC(=O)[C@H]1CC[C@H]2[C@@H]3CCC4=CC(=O)CC[C@]4(C)[C@H]3CC[C@]12C` [progesterone]?
Answer: brain damage / neurological outcome after TBI [4]: improved motor skills, decreased cerebral edema and decreased mortality; also recorded: reducing apoptosis of brain tissue; also recorded: better results on the Neurological Severity Score Test; brain / tissue cytokine levels after TBI [4]: reduced brain levels of IL-6 at 24, 48 and 72 hours; also recorded: decreased levels of IL-1β, IL-6 and TNF-α in the brain; also recorded: reduced brain levels of TNF-α and NF-κB; favorable outcome on the Glasgow outcome scale ([5]; SYNAPSE trial, 1195 patients with severe TBI): 50.4%; IL-1β and TNF-α (IL-1β and TNF-α): reduce IL-1β and TNF-α

Question: What does the source list for `CC(C)c1nc(N(C)S(C)(=O)=O)nc(-c2ccc(F)cc2)c1/C=C/[C@@H](O)C[C@@H](O)CC(=O)O` [rosuvastatin]?
Answer: plasma cytokine levels in patients with TBI ([5]; 10 days of rosuvastatin, 19 patients vs 17 controls): dramatic decrease in plasma levels of TNF-α; also recorded: No effect was seen on IL-1β, IL-6 or IL-10; clinical outcome in patients with TBI [5]: reduction in amnesia time; also recorded: no difference in disability at 3 months; also recorded: improvement in disability scores

Question: Which “brain damage / neurological outcome after TBI” value [4] does the source give for “IL-1RA: IL-1 receptor antagonist; human recombinant IL-1RA is a medication for rheumatoid arthritis” here?
Answer: No effect was seen at low doses; also recorded: decreased neuronal loss

Question: And the “brain / tissue cytokine levels after TBI” value [4]?
Answer: reduced tissue IL-1β levels

Question: And the “brain damage / neurological outcome after TBI” value [2]?
Answer: reduced lesion volume

Question: And the “clinical outcome in patients with TBI” value [5]?
Answer: unable to conclude that IL-1RA administration resulted in therapeutic benefit

Question: What about the “crossing of the blood-brain barrier” value [5, 9] of the same molecule?
Answer: does cross the blood-brain barrier

Question: What about the safety [5, 9] of the same molecule?
Answer: safe

Question: What about the “loss of cognitive function” value [6] of the same molecule?
Answer: less loss of cognitive function

Question: For “TSG-6: TNF-α stimulated gene/protein 6, an anti-inflammatory agent”, which “brain damage / neurological outcome after TBI” value [2] is on record?
Answer: decreased lesion size and improved neurological recovery

Question: With etanercept as the molecule, how does the “brain damage / neurological outcome after TBI” value [4] read?
Answer: reduced neuronal and glial apoptosis and microglial activation; also recorded: increased 5-bromodeoxyuridine and doublecortin markers in the injured brain

Question: And the “brain / tissue cytokine levels after TBI” value [4]?
Answer: reducing the increased levels of TNF-α

Question: What about the neurological function ([5]; medical records of 617 patients with stroke and 12 with TBI, no control group (Tobinick et al)) of the same molecule?
Answer: Marked improvement in neurological function

Question: For “tocilizumab: an IL-6 blocker; anti-IL-6 antibody”, which QT interval (QT interval; patients with rheumatoid arthritis) is on record?
Answer: shortening of the duration of the previously prolonged QT interval

B1: IL-10: the most important anti-inflammatory cytokine (protein, UniProt P22301 19-178, looked up)
Interleukin-10: SPGQGTQSENSCTHFPGNLPNMLRDLRDAFSRVKTFFQMKDQLDNLLLKESLLEDFKGYLGCQALSEMIQFYLEEVMPQAENQDPDIKAHVNSLGENLKTLRLRLRRCHRFLPCENKSKAVEQVKNAFNKLQEKGIYKAMSEFDIFINYIEAYMTMKIRN
Question: What does the source list for B1?
Answer: brain damage / neurological outcome after TBI [4]: enhance neurological recovery; also recorded: Intracerebroventricular administration was not effective; brain / tissue cytokine levels after TBI [4]: reduce synthesis of IL-1; cytokines and recovery after spinal cord injury [7]: reduced TNF-α production and improved motor function; caspase-3 and neuronal death [8]: blocks caspase-3 and reduces neuronal death
